Laboratory results reported in the supplement of paper PMC11061612.

Key:
[1] = system: NCI-H810 (Non-Small Cell Lung Carcinoma); assay: Bliss excess, mean over the matrix (fraction); higher = more synergy
In short: (§1)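 After 24 hours at 37°C and 5% CO2 in 1536-well plates, cells in DMEM/F12 or RPMI plus 10% FBS received two-drug dose matrices for 72 hours. Viability came from CellTiter-Glo 2.0 luminescence and was scaled as inhibition, anchored at 0 by vehicle wells and at 1 by blank wells. Combination Emax is taken as the second-highest inhibition in the matrix, and Bliss excess as the observed combination effect less EA + EB − EA·EB, with EA and EB the single-agent effects.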

786-0 (Kidney Carcinoma) = assay: as above
In short: as §1

[2] = system: SJRH30 (Rhabdomyosarcoma); assay: as above
In short: as §1

[3] = system: NKM-1 (Acute Myeloid Leukemia); assay: as above
In short: as §1

[4] = system: OVTOKO (Ovarian Carcinoma); assay: as above
In short: as §1

[5] = system: HTC-C3 (Thyroid Gland Carcinoma); assay: as above
In short: as §1

[6] = system: RPMI-8866 (Chronic Myelogenous Leukemia); assay: as above
In short: as §1

[7] = system: KYSE-70 (Esophageal Squamous Cell Carcinoma); assay: as above
In short: as §1

KYM-1 (Rhabdomyosarcoma) = assay: as above
In short: as §1

[8] = system: FLO-1 (Esophageal Adenocarcinoma); assay: as above
In short: as §1

[9] = system: RL95-2 (Endometrial Carcinoma); assay: as above
In short: as §1

[10] = system: AsPC-1 (Pancreatic Carcinoma); assay: as above
In short: as §1

[11] = system: OCI-AML5 (Acute Myeloid Leukemia); assay: as above
In short: as §1

CHL-1 (Melanoma) = assay: as above
In short: as §1

[12] = system: NCI-H1563 (Lung Adenocarcinoma); assay: as above
In short: as §1

[13] = system: JHH-1 (Hepatocellular Carcinoma); assay: as above
In short: as §1

[14] = system: COLO-684 (Endometrial Carcinoma); assay: as above
In short: as §1

ES-2 (Ovarian Carcinoma) = assay: as above
In short: as §1

[15] = system: CML-T1 (Chronic Myelogenous Leukemia); assay: combination Emax (second highest fraction inhibited in the dose matrix, 72 h); higher = more inhibition; extreme values may be limits of the assay
In short: as §1

[16] = system: COLO-684 (Endometrial Carcinoma); assay: as above
In short: as §1
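Throughout, for Bliss excess, mean over the matrix: after 72 h of two-drug dosing.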

SMILES | Bliss excess [1] | Bliss excess (786-0 (Kidney Carcinoma)) | Bliss excess [2] | Bliss excess [3] | Bliss excess [4] | Bliss excess [5] | Bliss excess [6] | Bliss excess [7] | Bliss excess (KYM-1 (Rhabdomyosarcoma)) | Bliss excess [8] | Bliss excess [9] | Bliss excess [10] | Bliss excess [11] | Bliss excess (CHL-1 (Melanoma)) | Bliss excess [12] | Bliss excess [13] | Bliss excess [14] | Bliss excess (ES-2 (Ovarian Carcinoma)) | combination Emax [15] | combination Emax [16]
COc1cccc2c1C(=O)c1c(O)c3c(c(O)c1C2=O)C[C@@](O)(C(=O)CO)C[C@@H]3O[C@H]1C[C@H](N)[C@H](O)[C@H](C)O1 [Doxorubicin] + Cc1cc2ncnn2cc1Nc1ncc2c(n1)n(C1CCOCC1)c(=O)n2C [AZD7648] (first compound max 1 µM, 7x7, partner max 10 µM) | 0.0213 | 0.082 | 0.122 | 0.0803 | -0.0578 | 0.0263 | 0.193 | 0.0271 | 0.0837 | 0.027 | -0.0064 | -0.033 | 0.174 | 0.002 | 0.0572 | -0.0314 | -0.003 | 0.076 | 1 | 0.627
CCN(CCO)CCCOc1ccc2c(Nc3cc(CC(=O)Nc4cccc(F)c4)[nH]n3)ncnc2c1 [AZD2811] + C=CCn1c(=O)c2cnc(Nc3ccc(N4CCN(C)CC4)cc3)nc2n1-c1cccc(C(C)(C)O)n1 [AZD1775] (first compound max 1 µM, partner max 1 µM) | -0.0022 | -0.0246 | 0.0089 | 0.0269 | -0.0353 | -0.0174 | 0.0714 | -0.0449 | -0.0096 | -0.0162 | 0.0389 | -0.0738 | -0.0295 | 0.0161 | 0.001 | -0.0609 | -0.0443 | -0.0111 | 0.915 | 0.649
Cn1cnc2c(F)c(Nc3ccc(Br)cc3Cl)c(C(=O)NOCCO)cc21 [Selumetinib] + CCN(CCO)CCCOc1ccc2c(Nc3cc(CC(=O)Nc4cccc(F)c4)[nH]n3)ncnc2c1 [AZD2811] (first compound max 10 µM, 7x7, partner max 1 µM) | -0.037 | -0.0344 | -0.0008 | -0.0376 | -0.0303 | -0.0228 | 0.0543 | 0.0047 | -0.0102 | -0.0448 | 0.045 | 0.0032 | -0.0225 | -0.0579 | 0.0102 | -0.0327 | -0.0211 | -0.0322 | 0.765 | 0.14
